Experimental data: the OPERA property sets (Mansouri et al. 2018)

Details: not given

Going from `Cc1ccc2nccc(C)c2c1` to `Brc1cnc2ccccc2c1`, the boiling point rises from 274 °C to 275 °C.

First: Fc1cc(F)c(F)nc1F
Second: Cc1cc(C)c(C(C)C)cc1C
The boiling point of the first is lower: 102 °C for the first, 221 °C for the second.

First: CC(C)CC(=O)CC(C)C
Second: CC(C)CC(C)CC(O)CC(C)C (configuration not stated)
The boiling point of the first is lower: 169 °C for the first, 225 °C for the second.

Compared with `FC(Cl)C(F)Cl` (configuration not stated), `CC(Cl)=C(Cl)Cl` is higher in boiling point: 46.8 °C for the first, 118 °C for the second.

First: Cc1cc(C)cc(CO)c1
Second: CCOC(=O)c1cccc(Cl)c1
The boiling point of the first is lower: 220 °C for the first, 243 °C for the second.

Compared with `C#CC(C)(C)C`, `C[Si](C)(C)CBr` is higher in boiling point: 37.7 °C for the first, 116 °C for the second.

Compared with `c1ccc2c(c1)Cc1ccccc1N2`, `Clc1cccc(-c2ccccc2)c1` is lower in boiling point: 347 °C for the first, 284 °C for the second.

First: CCC1CCC(C)CC1 (configuration not stated)
Second: C=C(C)C1CC=C(CO)CC1 (configuration not stated)
The boiling point of the first is lower: 151 °C for the first, 244 °C for the second.

Compared with `COC(C)CO` (configuration not stated), `CCC(CC)C(C)C` is lower in boiling point: 130 °C for the first, 116 °C for the second.

First: CCCCCCC(=O)c1ccccc1
Second: CCCCCOC(=O)c1ccccc1C(=O)OCCCCC
The boiling point of the first is lower: 283 °C for the first, 342 °C for the second.

Compared with `CCC(Oc1ccccc1)C(=O)O` (configuration not stated), `CC(=O)Oc1cccc(O)c1` is higher in boiling point: 258 °C for the first, 283 °C for the second.

Compared with `CC(=O)CCCC(=O)O`, `CN(C)CC(O)CN(C)C` is lower in boiling point: 274 °C for the first, 182 °C for the second.

First: CN(C)c1ccc(C(=N)c2ccc(N(C)C)cc2)cc1
Second: C=Cc1ccc(Cl)cc1
The boiling point of the first is higher: 330 °C for the first, 192 °C for the second.

Compared with `Nc1ccc([N+](=O)[O-])cc1`, `COc1cccc(S)c1` is lower in boiling point: 332 °C for the first, 224 °C for the second.

Compared with `CC1=CCC(O)(C(C)C)CC1` (configuration not stated), `IC(I)I` is higher in boiling point: 209 °C for the first, 218 °C for the second.

Compared with `Cc1ccc2nccc(C)c2c1`, `Brc1cnc2ccccc2c1` is lower in melting point: 22 °C for the first, 13.3 °C for the second.

Going from `Oc1ncnc2[nH]ncc12` to `Nc1nccnn1`, the melting point falls from 350 °C to 176 °C.

First: CCCOC(=O)CCCCC(=O)OCCC
Second: CC(=O)CCCC(=O)O
The melting point of the first is lower: -15.7 °C for the first, 13.5 °C for the second.

Going from `COC(=O)c1cc(C(=O)OC)c(C(=O)OC)cc1C(=O)OC` to `COc1cccc(C(=O)O)c1OC`, the melting point falls from 144 °C to 123 °C.

First: CC(C)CC(=O)CC(C)C
Second: CCC(CC)C(C)C
The melting point of the first is higher: -41.5 °C for the first, -115 °C for the second.

Going from `O=C(O)CCCCl` to `CCCCCCC(=O)c1ccccc1`, the melting point rises from 16 °C to 16.4 °C.

Going from `O=[N+]([O-])c1ccc(C2CCCCC2)cc1` to `Nc1ccc([N+](=O)[O-])cc1`, the melting point rises from 58.5 °C to 146 °C.

Going from `CCNc1nc(Cl)nc(N(CC)CC)n1` to `Cc1[nH]c(C)c(C)c1C`, the melting point rises from 101 °C to 111 °C.

Going from `CC(=O)Nc1ccc(/N=N/c2cc(C)ccc2O)cc1` to `CC(=O)Nc1cccc(Cl)c1`, the melting point falls from 195 °C to 80 °C.

Compared with `C#CC(C)(C)C`, `Cc1cc(C)c(C(C)C)cc1C` is higher in melting point: -78.2 °C for the first, 21 °C for the second.

Going from `c1ccc2c(c1)-c1cc3ccccc3c3cc4ccccc4c-2c13` to `Cc1cccc2cc3ccc4ccccc4c3cc12`, the melting point falls from 232 °C to 118 °C.

Going from `CC[C@H]1CC[C@H]2[C@@H]3CC[C@@H]4CCCC[C@]4(C)[C@H]3CC[C@]12C` to `CCC1CCC(C)CC1` (configuration not stated), the melting point falls from 84 °C to -80.8 °C.

Going from `O=[N+]([O-])c1cccc2c([N+](=O)[O-])cccc12` to `c1ccc(Nc2cccc3ccccc23)cc1`, the melting point falls from 219 °C to 62 °C.

First: Clc1cccc(-c2ccccc2)c1
Second: O=C(NC(=O)c1ccccc1Cl)Nc1ccc(OC(F)(F)F)cc1
The melting point of the first is lower: 16 °C for the first, 195 °C for the second.

Compared with `CCC(Oc1ccccc1)C(=O)O` (configuration not stated), `CCOC(=O)[C@@H](N)CS.Cl` is higher in melting point: 98 °C for the first, 124 °C for the second.

Going from `O=S(=O)(O)CCCN1CCOCC1` to `O=[N+]([O-])C(CO)(CO)CO`, the melting point falls from 284 °C to 214 °C.

Going from `CN(C)c1ccc(C(=N)c2ccc(N(C)C)cc2)cc1` to `COc1ccc(Cc2nccc3cc(OC)c(OC)cc23)cc1OC`, the melting point rises from 136 °C to 148 °C.

Going from `CC1=C(/C=C/C(C)=C/C=C/C(C)=C/C=C/C=C(C)/C=C/C=C(C)/C=C/C2=C(C)C(=O)C(O)CC2(C)C)C(C)(C)CC(O)C1=O` (configuration not stated) to `CO[C@H]1O[C@H](CO)[C@@H](O)[C@H](O)[C@H]1O`, the melting point falls from 182 °C to 168 °C.

Going from `C=Cc1ccc(Cl)cc1` to `IC(I)I`, the melting point rises from 15.9 °C to 119 °C.

Going from `Clc1ccc2c(Cl)ccc(Cl)c2c1` to `Clc1ccc2c(Cl)c(Cl)ccc2c1`, the log10 Koa rises from 7.27 to 7.5.

`Clc1cccc(-c2ccccc2)c1` gave a log10 Koa of 6.82.

First: CC(C)CC(=O)CC(C)C
Second: CCC(CC)C(C)C
The log10 vapour pressure (mmHg) of the first is lower: 0.217 for the first, 1.38 for the second.

Compared with `CC(=O)Nc1ccc(/N=N/c2cc(C)ccc2O)cc1`, `O=C(NC(=O)c1ccccc1Cl)Nc1ccc(OC(F)(F)F)cc1` is higher in log10 vapour pressure (mmHg): -10.3 for the first, -9.52 for the second.

Compared with `Clc1cccc(-c2ccccc2)c1`, `Clc1cc(Cl)c(-c2ccccc2)c(Cl)c1` is lower in log10 vapour pressure (mmHg): -2.13 for the first, -3.15 for the second.

`CC(Cl)c1ccccc1` (configuration not stated) and `C=Cc1ccc(Cl)cc1` are within 0.2 log units of each other in log10 vapour pressure (mmHg): -0.187 for the first, -0.0885 for the second.

First: Nc1ccc([N+](=O)[O-])cc1
Second: Clc1ccc(Oc2ccc(Cl)cc2Cl)cc1
The log10 vapour pressure (mmHg) of the first is lower: -5.49 for the first, -3.82 for the second.

`COc1cccc(C(=O)O)c1OC` showed a log10 vapour pressure (mmHg) of -5.73.

In the case of `C=CC(C)O` (configuration not stated), the ready biodegradability is reported as “readily biodegradable”.
In the case of `O=[N+]([O-])c1cccc2c([N+](=O)[O-])cccc12`, the ready biodegradability is reported as “not readily biodegradable”.
In the case of `O=C1OC(=O)C2CCCCC12` (configuration not stated), the ready biodegradability is reported as “not readily biodegradable”.
For `Nc1c(Br)cc2c(c1Br)Cc1ccccc1-2`, the ready biodegradability was “not readily biodegradable”.
For `CN(C)c1ccc(C(=N)c2ccc(N(C)C)cc2)cc1`, the ready biodegradability was “not readily biodegradable”.
With `c1ccc(Nc2cccc3ccccc23)cc1` the ready biodegradability was “not readily biodegradable”.
For `C=C(C)c1ccc(O)cc1`, the ready biodegradability was “not readily biodegradable”.
For `O=[N+]([O-])C(CO)(CO)CO`, the ready biodegradability was “readily biodegradable”.
For `Nc1ccc([N+](=O)[O-])cc1`, the ready biodegradability was “not readily biodegradable”.
In the case of `C=Cc1ccc(Cl)cc1`, the ready biodegradability is reported as “not readily biodegradable”.

Going from `CCNc1nc(Cl)nc(N(CC)CC)n1` to `CC(=O)Nc1cccc(Cl)c1`, the log10 Koc (L/kg) falls from 2.76 to 1.86.

Going from `CN(C)c1ccc(C(=N)c2ccc(N(C)C)cc2)cc1` to `Nc1ccc([N+](=O)[O-])cc1`, the log10 Koc (L/kg) falls from 3.31 to 1.88.

Compared with `Clc1cccc(-c2ccccc2)c1`, `Nc1ccc([N+](=O)[O-])cc1` is lower in log10 Henry constant (atm·m³/mol): -3.21 for the first, -8.9 for the second.

Compound `Clc1cc(Cl)c(Cl)c(-c2ccc(Cl)c(Cl)c2Cl)c1` has a log10 Henry constant (atm·m³/mol) of -4.43.

`CCC(CC)C(C)C` gave a log10 biodegradation half-life (days) of 0.778.

Same assay, conditions: fish

Compared with `Brc1ccc(Oc2ccc(Br)cc2Br)c(Br)c1`, `Nc1ccc2cc(S(=O)(=O)O)cc(O)c2c1` is lower in log10 BCF: 5.84 for the first, 0.61 for the second.

Going from `ClC1=C(Cl)C2(Cl)C3C(Cl)C(Cl)CC3C1(Cl)C2(Cl)Cl` (configuration not stated) to `c1ccc(Nc2cccc3ccccc23)cc1`, the log10 BCF falls from 4.35 to 3.23.

In the case of `Nc1ccc([N+](=O)[O-])cc1`, the log10 BCF is reported as 0.6.

`Brc1ccc(Oc2ccc(Br)cc2Br)c(Br)c1` and `Clc1ccc(Oc2ccc(Cl)cc2Cl)cc1` are within 0.2 log units of each other in log10 biotransformation half-life (days): 1.6 for the first, 1.72 for the second.

First: ClC1=C(Cl)C2(Cl)C3C(Cl)C(Cl)CC3C1(Cl)C2(Cl)Cl (configuration not stated)
Second: Clc1cc(Cl)c(-c2cccc(Cl)c2Cl)cc1Cl
The log10 biotransformation half-life (days) of the first is lower: 2.26 for the first, 2.55 for the second.

Compared with `Clc1ccc(-c2cccc(Cl)c2Cl)cc1Cl`, `Clc1cc2c(oc3c(Cl)c(Cl)ccc32)c(Cl)c1Cl` is lower in log10 biotransformation half-life (days): 2.47 for the first, 0.9 for the second.

With `Nc1ccc([N+](=O)[O-])cc1` the log10 biotransformation half-life (days) was -0.51.
